Patent US11793822B2, “Uses of Pulsatilla Chinensis extract in preparing drug for treating viral and/or bacterial diseases” (SICHUAN INLU WEITE PHARMACEUTICAL TECHNOLOGY CO., LTD., priority 2018, dated 2023)

What was measured:
[1] = set-up: species or system dairy cows; details: in vivo
Excerpt: In addition, during the treatment of dairy cow mastitis, randomly selected the tested Pulsatilla Saponin B4 injection and entrusted the Sichuan Provincial Veterinary Drug Inspection Institute to conduct more than 200 antibiotic tests, and no antibiotic component was detected. […] Pulsatilla Saponin B4 has little effect on the immunoglobulin and inflammatory factors in the cow milk, thus can ensure the stability of the milk composition. In addition, since there is no residue, it will not affect the quality of fresh milk in dairy farms.

[2] = tested on: persistent clinical mastitis; test: Treatment of persistent clinical mastitis (Test Example 3); format: in vivo, cows; details: 60 mL intramuscular injection once a day, after 3 administrations
Method: Pulsatilla Saponin B4 injection prepared by the preparation method of Example 3 at a concentration of 50 mg/mL;
The test selected 8 existing cows suffering from clinical mastitis in the dairy farm of Shijiazhuang Tianquan Dairy Cows Co., Ltd. These 8 cows have been treated for about a month but have not been cured (2 of them were close to dry, i.e., almost no milk was produced). These 8 cows have been treated by farm veterinarians, the treatment drugs and methods include udder infusing Cefquinome Sulfate Intramammary Infusion, intravenous injecting cephalosporins injection, and gavage with Gongying San ( ? ), etc.
To study the effect of Pulsatilla Saponin B4 injection on persistent clinical mastitis and the effect of Pulsatilla Saponin B4 injection on latent mastitis.
In the test, the Pulsatilla Saponin B4 injection prepared by the preparation method of Example 3 was used to treat 6 cows with persistent clinical mastitis and 2 cows with persistent clinical mastitis and close to dry. No matter how many udder areas were inflamed, intramuscular injection (60 mL) was taken once a day.

C=C(C)C1CC[C@]2(C(=O)O[C@@H]3O[C@H](CO[C@@H]4O[C@H](CO)[C@@H](O[C@@H]5O[C@@H](C)[C@H](O)[C@@H](O)[C@H]5O)[C@H](O)[C@H]4O)[C@@H](O)[C@H](O)C3O)CC[C@]3(C)[C@H](CC[C@@H]4[C@@]5(C)CC[C@H](O[C@@H]6OC[C@H](O)[C@H](O)[C@H]6O[C@@H]6O[C@@H](C)[C@H](O)[C@@H](O)[C@H]6O)C(C)(CO)[C@@H]5CC[C@]43C)[C@H]12 (stereo partly drawn) [Pulsatilla Saponin B4]
Effect on the immunoglobulin and inflammatory factors in the cow milk [1]: little effect | Treatment result of cows with persistent clinical mastitis close to dry ([2]; 2 cows close to dry): not effective | Treatment result of cows with persistent clinical mastitis ([2]; 6 cows treated about a month but not cured): four cows were cured, one cow improved significantly, and one cow showed no significant effect
